Assay results published in ChEMBL document CHEMBL1145631, “Development of a fluorescence polarization based assay for histone deacetylase ligand discovery” (Bioorg Med Chem Lett, 2008).

Legend:
[1] = target: T1, Protein deacetylase HDAC6 (Homo sapiens, UniProt Q9UBN7)
T1 sequence (Q9UBN7 whole entry): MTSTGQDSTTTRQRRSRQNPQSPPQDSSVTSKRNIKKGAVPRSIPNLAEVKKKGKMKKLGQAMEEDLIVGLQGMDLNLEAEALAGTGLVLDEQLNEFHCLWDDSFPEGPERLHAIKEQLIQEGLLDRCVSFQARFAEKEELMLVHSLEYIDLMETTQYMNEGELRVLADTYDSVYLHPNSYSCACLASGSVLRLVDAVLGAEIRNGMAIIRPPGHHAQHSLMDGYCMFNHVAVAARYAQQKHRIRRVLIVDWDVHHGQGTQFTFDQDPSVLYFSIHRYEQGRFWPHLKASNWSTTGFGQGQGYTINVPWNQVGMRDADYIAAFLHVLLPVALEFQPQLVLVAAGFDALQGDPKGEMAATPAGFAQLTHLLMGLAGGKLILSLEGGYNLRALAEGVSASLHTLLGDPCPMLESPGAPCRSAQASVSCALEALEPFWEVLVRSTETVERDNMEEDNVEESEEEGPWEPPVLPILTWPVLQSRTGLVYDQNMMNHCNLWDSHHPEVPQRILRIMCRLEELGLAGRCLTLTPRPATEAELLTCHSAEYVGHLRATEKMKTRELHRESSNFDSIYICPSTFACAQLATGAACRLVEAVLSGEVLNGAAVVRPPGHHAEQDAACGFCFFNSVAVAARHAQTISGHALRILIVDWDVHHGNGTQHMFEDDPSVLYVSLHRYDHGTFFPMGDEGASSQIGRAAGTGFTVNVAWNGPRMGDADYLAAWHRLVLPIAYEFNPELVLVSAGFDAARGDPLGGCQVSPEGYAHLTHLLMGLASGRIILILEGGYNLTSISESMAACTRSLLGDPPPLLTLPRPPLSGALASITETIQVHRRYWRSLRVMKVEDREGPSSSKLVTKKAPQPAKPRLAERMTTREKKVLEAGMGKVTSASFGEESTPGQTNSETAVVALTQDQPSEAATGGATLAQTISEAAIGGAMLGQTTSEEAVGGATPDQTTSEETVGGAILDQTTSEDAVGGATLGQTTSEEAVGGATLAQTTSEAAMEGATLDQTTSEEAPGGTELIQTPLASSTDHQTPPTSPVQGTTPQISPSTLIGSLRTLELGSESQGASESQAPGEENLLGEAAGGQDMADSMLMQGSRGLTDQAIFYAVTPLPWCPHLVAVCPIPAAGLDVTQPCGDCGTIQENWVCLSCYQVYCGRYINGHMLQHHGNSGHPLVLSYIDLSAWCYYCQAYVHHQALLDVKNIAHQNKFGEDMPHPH
Description: Displacement of fluorescent 5-(3-(3-(4-((4-((7-(hydroxyamino)-7-oxoheptyl)carbamoyl)phenylamino)methyl)-1H-1,2,3-triazol-1-yl)propyl)thioureido)-2-(3-hydroxy-6-oxo-6H-xanthen-9-yl)benzoic acid from human HDAC6 by fluorescence polarization assay

[2] = target: Histone deacetylase 3/Nuclear receptor corepressor 2 (HDAC3/NCoR2) (Homo sapiens, UniProt O15379); assay type: protein-complex assay
Description: Displacement of fluorescent 5-(3-(3-(4-((4-((7-(hydroxyamino)-7-oxoheptyl)carbamoyl)phenylamino)methyl)-1H-1,2,3-triazol-1-yl)propyl)thioureido)-2-(3-hydroxy-6-oxo-6H-xanthen-9-yl)benzoic acid from human HDAC3/NcoR2 by fluorescence polarization assay

Histone deacetylase = assay type: protein assay, Homo sapiens
Description: Displacement of fluorescent 5-(3-(3-(4-((4-((7-(hydroxyamino)-7-oxoheptyl)carbamoyl)phenylamino)methyl)-1H-1,2,3-triazol-1-yl)propyl)thioureido)-2-(3-hydroxy-6-oxo-6H-xanthen-9-yl)benzoic acid from HDAC in human HeLa nuclear cell extract by fluorescence polarization assay

Sequence of Histone deacetylase 3/Nuclear receptor corepressor 2 (HDAC3/NCoR2) (O15379 whole entry): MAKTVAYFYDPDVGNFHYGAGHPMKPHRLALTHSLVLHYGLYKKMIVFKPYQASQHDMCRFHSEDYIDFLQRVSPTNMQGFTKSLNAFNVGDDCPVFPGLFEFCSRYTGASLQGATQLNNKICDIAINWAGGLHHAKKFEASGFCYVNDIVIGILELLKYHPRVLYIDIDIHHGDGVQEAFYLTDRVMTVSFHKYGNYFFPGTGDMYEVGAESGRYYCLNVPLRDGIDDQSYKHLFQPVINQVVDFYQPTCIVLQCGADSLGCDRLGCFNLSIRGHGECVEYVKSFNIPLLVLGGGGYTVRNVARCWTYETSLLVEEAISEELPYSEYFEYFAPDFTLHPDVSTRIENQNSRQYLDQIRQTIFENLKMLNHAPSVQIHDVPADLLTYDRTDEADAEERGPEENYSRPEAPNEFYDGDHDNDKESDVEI
Sequence of Histone deacetylase 3/Nuclear receptor corepressor 2 (HDAC3/NCoR2) (Q9Y618 whole entry, further chain): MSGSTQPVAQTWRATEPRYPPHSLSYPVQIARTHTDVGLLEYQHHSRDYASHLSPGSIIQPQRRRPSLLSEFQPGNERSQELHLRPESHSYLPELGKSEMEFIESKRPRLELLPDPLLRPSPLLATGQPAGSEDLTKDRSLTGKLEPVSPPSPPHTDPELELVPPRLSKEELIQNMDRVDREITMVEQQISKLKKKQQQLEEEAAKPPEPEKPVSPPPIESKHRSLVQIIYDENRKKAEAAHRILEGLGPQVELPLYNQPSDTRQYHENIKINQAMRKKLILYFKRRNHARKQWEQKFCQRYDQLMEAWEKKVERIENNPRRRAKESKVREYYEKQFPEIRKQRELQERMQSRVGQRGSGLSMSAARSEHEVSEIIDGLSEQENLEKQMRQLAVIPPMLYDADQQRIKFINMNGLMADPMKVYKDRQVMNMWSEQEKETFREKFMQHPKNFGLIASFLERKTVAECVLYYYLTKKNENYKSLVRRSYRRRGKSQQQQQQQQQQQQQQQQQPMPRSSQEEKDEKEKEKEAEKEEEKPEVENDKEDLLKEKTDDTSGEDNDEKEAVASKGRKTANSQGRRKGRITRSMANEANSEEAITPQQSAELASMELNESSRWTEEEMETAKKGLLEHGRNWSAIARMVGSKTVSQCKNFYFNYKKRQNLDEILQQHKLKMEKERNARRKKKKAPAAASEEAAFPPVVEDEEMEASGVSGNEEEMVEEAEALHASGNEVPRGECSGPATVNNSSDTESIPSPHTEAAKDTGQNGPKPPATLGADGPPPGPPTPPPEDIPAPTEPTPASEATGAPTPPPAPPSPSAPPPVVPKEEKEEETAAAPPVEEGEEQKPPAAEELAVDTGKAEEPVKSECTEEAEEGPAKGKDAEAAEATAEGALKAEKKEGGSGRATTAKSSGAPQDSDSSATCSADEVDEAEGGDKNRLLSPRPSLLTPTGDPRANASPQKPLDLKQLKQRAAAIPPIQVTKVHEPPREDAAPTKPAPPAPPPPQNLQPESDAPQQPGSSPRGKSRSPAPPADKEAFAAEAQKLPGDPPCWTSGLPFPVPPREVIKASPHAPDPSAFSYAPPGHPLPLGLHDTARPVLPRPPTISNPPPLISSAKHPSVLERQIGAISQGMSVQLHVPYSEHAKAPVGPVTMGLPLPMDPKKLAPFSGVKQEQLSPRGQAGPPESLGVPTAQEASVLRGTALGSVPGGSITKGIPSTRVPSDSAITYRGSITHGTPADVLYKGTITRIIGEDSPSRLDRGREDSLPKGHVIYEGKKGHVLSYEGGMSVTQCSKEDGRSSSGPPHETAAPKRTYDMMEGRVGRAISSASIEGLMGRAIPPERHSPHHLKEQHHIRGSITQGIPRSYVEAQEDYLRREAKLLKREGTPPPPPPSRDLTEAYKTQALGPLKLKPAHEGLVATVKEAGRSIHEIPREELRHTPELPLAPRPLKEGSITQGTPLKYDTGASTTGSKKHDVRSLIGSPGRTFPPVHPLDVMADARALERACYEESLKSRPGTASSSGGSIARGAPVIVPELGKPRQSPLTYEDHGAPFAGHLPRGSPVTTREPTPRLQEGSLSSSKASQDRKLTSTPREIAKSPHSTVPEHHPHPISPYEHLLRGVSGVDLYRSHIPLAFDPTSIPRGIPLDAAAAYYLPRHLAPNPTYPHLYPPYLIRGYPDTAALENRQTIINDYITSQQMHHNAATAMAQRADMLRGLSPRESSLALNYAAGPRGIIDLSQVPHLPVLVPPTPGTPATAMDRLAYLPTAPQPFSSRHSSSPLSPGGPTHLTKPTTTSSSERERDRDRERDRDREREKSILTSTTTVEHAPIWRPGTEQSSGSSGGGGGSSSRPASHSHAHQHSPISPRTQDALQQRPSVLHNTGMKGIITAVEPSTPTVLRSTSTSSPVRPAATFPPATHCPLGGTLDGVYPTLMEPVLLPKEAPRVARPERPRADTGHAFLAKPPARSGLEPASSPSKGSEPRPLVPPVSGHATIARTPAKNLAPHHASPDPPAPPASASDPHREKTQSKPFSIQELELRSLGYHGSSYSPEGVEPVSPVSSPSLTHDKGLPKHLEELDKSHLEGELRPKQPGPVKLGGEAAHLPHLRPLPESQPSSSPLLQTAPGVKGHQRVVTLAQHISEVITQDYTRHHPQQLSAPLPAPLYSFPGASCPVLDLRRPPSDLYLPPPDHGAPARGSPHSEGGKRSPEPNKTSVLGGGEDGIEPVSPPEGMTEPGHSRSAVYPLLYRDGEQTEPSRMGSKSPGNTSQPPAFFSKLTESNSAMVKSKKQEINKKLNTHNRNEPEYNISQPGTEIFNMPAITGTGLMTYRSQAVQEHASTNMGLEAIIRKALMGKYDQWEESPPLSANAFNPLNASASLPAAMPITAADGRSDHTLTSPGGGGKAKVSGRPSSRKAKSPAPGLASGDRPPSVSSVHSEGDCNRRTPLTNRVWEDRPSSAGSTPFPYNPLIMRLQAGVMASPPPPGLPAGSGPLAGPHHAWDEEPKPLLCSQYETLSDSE

Q: `O=C(CCCCCCNC(=O)c1ccc(NCc2cn(CCCNC(=S)Nc3ccc(-c4c5ccc(=O)cc-5oc5ccccc45)c(C(=O)O)c3)nn2)cc1)NO` was tested. Which Kd [1] did it give?
A: 4.6 nM

Q: What about the Kd [2] of the same compound?
A: 2 nM

Q: Which IC50 (Histone deacetylase) does the source give for `NCCCn1cc(CNc2ccc(C(=O)NCCCCCCC(=O)NO)cc2)nn1` here?
A: 58 nM

Q: What about the IC50 [1] of the same compound?
A: 50.8 nM

Q: What about the Ki [1] of the same compound?
A: 6.6 nM

Q: And the IC50 [2]?
A: 137 nM

Q: And the Ki [2]?
A: 23.1 nM

Q: For `O=C1CCc2c(ccc3ccccc23)O1` [SPLITOMICIN], which IC50 (Histone deacetylase) is on record?
A: > 75000 nM

Q: And the IC50 [1]?
A: > 75000 nM

Q: And the Ki [1]?
A: > 75000 nM

Q: What about the IC50 [2] of the same compound?
A: > 75000 nM

Q: And the Ki [2]?
A: > 75000 nM
